In patent US5686459A, “Dioxopyrrolo pyrrole derivatives” (Hoffmann-La Roche Inc., priority 1995, dated 1997):
pKi: −log10 of the molar value. Counter-ions that a name gives are not always drawn. Values belong to the compound of their own block, whether it stands above or below them.

How the values were obtained:
Format in all cases: biochemical
thrombin [1] = target: T1, thrombin (Homo sapiens, UniProt P00734); assay: inhibition of the amidolytic activity of thrombin (chromogenic substrate H-D-Phe-Pip-Arg-paranitroaniline); conditions: substrate 10 or 50 μM; thrombin 0.5 nM final conc.; pH 7.8; room temperature
Experimental: The measurements were carried out on microtitre plates at room temperature. For this, in each well of the plate […] of buffer (50 mM Tris, 100 mM NaCl, 0.1% polyethylene glycol; pH 7.8) were mixed with […] of the inhibitor dissolved in DMSO and diluted in the buffer and […] of human thrombin (0.5 nM final conc.). After incubation for 10 minutes the reaction was started by the addition of the chromogenic substrate H-D-Phe-Pip-Arg-paranitroaniline (10 or 50 μM final concentration), in which Pip represents the characterizing group 2-piperidylenecarbonyl of the α-aminoacid H-Pip-OH, which is (S)-piperidine-2-carboxylic acid (or L-homoproline). The hydrolysis of the substrate was followed spectrophotometrically on a kinetic microtitre plate reader for 5 minutes.

Factor Xa = Factor Xa (Homo sapiens, UniProt P00742); assay: inhibition of the amidolytic activity of Factor Xa (chromogenic substrate Bz-Ile-Glu-Gly-Arg-paranitroaniline); conditions: substrate 167 μM final concentration
thrombin [2] = target: T1, thrombin; assay: thrombin test of crude products (chromogenic substrate S-2238, 405 nm); conditions: crude product
Experimental: 5 g (1.5 mmol) of Fmoc-TGR resin according to H. Rink Tetrahedron Lett. 28, 3787 (1987) were shaken for 30 minutes. with a 20% solution of piperidine in DMF. Subsequently, the resin was washed with DMF. 1.19 g (3 mmol) of Fmoc-arginine, 950 mg (6 mmol) of 1-hydroxy-benzotriazole (HOBT--containing about 20% water), 570 mg of diisopropylcarbodiimide and DMF were added and the mixture was shaken for 1 hour. The resin was washed with DMF and shaken for 30 minutes with a 20% solution of piperidine in DMF. Thereafter, it was washed with DMF, isopropanol, water and methanol. Subsequently, the resin was distributed in equal portions in 30 reaction vessels, then 0.5 mmol of a carbonyl compound (a. paraformaldehyde, b. pivalaldehyde, c. benzaldehye, d. benzophenone and e. phenylpropionaldehyde) were added to in each case 6 of these vessels, whereafter to each 0.5 mmol of a maleimide (maleimide, N-methyl-, N-butyl-, N-cyclohexylmethyl-, N-phenyl- or N-benzyl-maleimide) was added such that each vessel contains a different pairing of carbonyl compound and maleimide. About 5 ml of a mixture of 150 ml of methanol and 8 ml of acetic acid were added to each vessel as the solvent and the batch was heated under reflux for 22 hours. After cooling the solvent was sucked off and the resin was washed in each case twice with dimethyl sulfoxide, isopropanol, water and isopropanol. The resin was then treated with in each case about 5 ml of a mixture of 40% trifluoroacetic acid, 50% dichloromethane, 5% water and 5% isopropanol and shaken for 2 hours. After filtration the 30 filtrate solutions were concentrated. 30 crude products were thus obtained as yellow oils. For mass spectroscopic and HPLC investigations about 0.5 mg of each oil was removed and taken up in […].

Chain of Factor Xa (P00742 235-488 limits assumed): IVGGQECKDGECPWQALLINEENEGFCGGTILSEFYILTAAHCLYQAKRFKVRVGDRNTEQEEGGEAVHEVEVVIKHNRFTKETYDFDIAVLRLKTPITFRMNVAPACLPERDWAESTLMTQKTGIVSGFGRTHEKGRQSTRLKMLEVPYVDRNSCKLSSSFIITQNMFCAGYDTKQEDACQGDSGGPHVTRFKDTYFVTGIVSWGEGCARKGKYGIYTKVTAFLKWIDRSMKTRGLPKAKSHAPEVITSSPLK
Chain of Factor Xa (P00742 41-179 partner limits assumed): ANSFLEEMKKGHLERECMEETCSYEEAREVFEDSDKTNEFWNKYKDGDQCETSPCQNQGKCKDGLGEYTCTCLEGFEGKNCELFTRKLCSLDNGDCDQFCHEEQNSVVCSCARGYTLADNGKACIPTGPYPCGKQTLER

SMILES: N=C(N)c1ccc([C@@H]2N[C@](COCc3ccccc3)(C(=O)O)[C@@H]3C(=O)N(Cc4ccc(N)cc4)C(=O)[C@@H]32)cc1 (racemic) [Example 19, (1RS,3RS,3aSR,6aRS)-5-(4-amino-benzyl)-1-(benzyloxy-methyl)-3-(4-carbamimidoyl-phenyl)-4,6-dioxo-octahydro-pyrrolo[3,4-c]pyrrole-1-carboxylic acid hydrochloride]
pKi (Factor Xa): 7.12

SMILES: CSCCC1(C(=O)O)NC(c2ccc(C(=N)N)cc2)C2C(=O)N(CC3CCCCC3)C(=O)C21 (stereo not drawn) [Example 13 n), 5-cyclohexylmethyl-1-(2-methylsulfanyl-ethyl)-3-(4-carbamimidoyl-phenyl)-4,6-dioxo-octahydro-pyrrolo[3,4-c]pyrrole-1-carboxylic acid]
inhibitory activity in the thrombin test (thrombin [2]; among the named cycloadducts of Example 13): greatest inhibitory activity

SMILES: N=C(N)NCCCC1(C(N)=O)NC(c2ccccc2)C2C(=O)N(c3ccccc3)C(=O)C21 (stereo not drawn) [Example 12 m), 3,5-diphenyl-1-(3-guanidino-propyl)-4,6-dioxo-octahydro-pyrrolo[3,4-c]pyrrole-1-carboxamide]
inhibitory activity in the thrombin test (thrombin [2]; among the named cycloadducts of Example 12): greatest inhibitory activity

SMILES: CCCCN1C(=O)[C@@H]2[C@H](C1=O)[C@H]1CCCN1[C@@H]2c1ccc(NC(=N)N)cc1 (racemic) [Example 9, (3aRS,4SR,8aRS, 8bSR)-N-[4-(2-Butyl-1,3-dioxo-decahydro-pyrrolo[3,4-a]pyrrolizin-4-yl)-phenyl]-guanidinium nitrate]
pKi (thrombin [1]): 6.96

SMILES: N=C(N)c1ccc([C@@H]2[C@@H]3C(=O)N(CC4CCCCC4)C(=O)[C@@H]3[C@H]3CCCN32)cc1 (racemic) [7.A)g), (3aRS,4SR,8aRS,8bSR)-4-(2-Cyclohexylmethyl-1,3-dioxo-decahydro-pyrrolo[3,4-a]pyrrolizin-4-yl)-benzimidamide hydrochloride]
pKi (thrombin [1]): 6.46

SMILES: N=C(N)c1ccc(C2C3C(=O)N(C(Cc4ccccc4)C(N)=O)C(=O)C3C3CCCN32)cc1 (stereo not drawn) [Example 15]
inhibitory activity in the thrombin test (thrombin [2]; among the 20 crude products of Example 15): highest inhibitory activity

SMILES: N=C(N)c1ccc(C2C3C(=O)N(c4ccccc4)C(=O)C3C(CO)(C(=O)O)N2CCC(N)=O)cc1 (stereo not drawn) [Example 14 p), 3-hydroxymethyl-5-phenyl-1-(4-carbamimidoyl-phenyl)-2-(2-carbamoyl-ethyl)-4,6-dioxo-octahydro-pyrrolo[3,4-c]pyrrole-3-carboxylic acid]
inhibitory activity (determined according to Example 12) (thrombin [2]; among the products of Example 14): highest inhibitory activity

SMILES: N=C(N)c1ccc([C@@H]2N[C@](COCc3ccccc3)(C(=O)O)[C@@H]3C(=O)N(Cc4ccc([N+](=O)[O-])cc4)C(=O)[C@@H]32)cc1 (racemic) [Example 18, (1RS,3RS,3aSR,6aRS)-1-(benzyloxy-methyl)-3-(4-carbamimidoyl-phenyl)-5-(4-nitro-benzyl)-4,6-dioxo-octahydro-pyrrolo[3,4-c]pyrrole-1-carboxylic acid hydrochloride]
pKi (Factor Xa): 7.01

More lines, now with the values ahead:

pKi (thrombin [1]): 6.17
SMILES: C[C@H]1[C@@H]2C(=O)N(Cc3ccccc3)C(=O)[C@@H]2[C@H](c2ccc(C(=N)N)cc2)N1C (racemic) [4.A)a), (1RS,3SR,3aRS,6aSR)-4-(5-Benzyl-2,3-dimethyl-4,6-dioxo-octahydro-pyrrolo[3,4-c]pyrrol-1-yl)-benzimidamide hydrochloride]

pKi (thrombin [1]): 7.05
SMILES: N=C(N)c1ccc([C@@H]2[C@@H]3C(=O)N(Cc4ccc5c(c4)OCO5)C(=O)[C@@H]3[C@H]3CCCN32)cc1 (racemic) [4.A)g), (3aRS,4SR,8aRS,8bSR)-4-[2-(Benzo[1,3]dioxol-5-ylmethyl)-1,3-dioxo-decahydro-pyrrolo[3,4-a]pyrrolizin-4-yl]-benzimidamide hydrochloride]

pKi (thrombin [1]): 6.36
SMILES: N=C(N)c1ccc([C@H]2[C@H]3C(=O)N(Cc4ccc5c(c4)OCO5)C(=O)[C@H]3[C@@H]3CSCN32)cc1 (racemic) [Example 7.A)i), (5RS,5aSR,8aRS,8bRS)-4-[7-(Benzo[1,3]dioxol-5-ylmethyl)-6,8-dioxo-octahydro-pyrrolo[3',4':3,4]pyrrolo[1,2-c]thiazol-5-yl]-benzimidamide hydrochloride]

pKi (thrombin [1]): 6.17
SMILES: N=C(N)c1ccc([C@@H]2[C@@H]3C(=O)N(Cc4ccccc4)C(=O)[C@@H]3[C@H]3C[C@H](O)CN32)cc1 [7.A)o), (3aR,4S,7S,8aR,8bS)-4-(2-Benzyl-7-hydroxy-1,3-dioxo-decahydro-pyrrolo[3,4-a]pyrrolizin-4-yl)-benzimidamide hydrochloride]
